From EP0613890A1, “Novel triazole compound, process for preparing the same and antifungal agent containing the same” (NIHON NOHYAKU CO., LTD., priority 1993, dated 1994)

Legend:
[1] = test system: Candida albicans IFO 1270; assay: Growth inhibition of Candida albicans in Sabouraud's glucose broth (Test Example 1); type: cell-based; details: Candida albicans IFO 1270, Sabouraud's glucose broth
Protocol: To 9.8 mℓ of Sabouraud's glucose broth, 0.1 mℓ of cell suspension of Candida albicans IFO 1270 (1.0 x 10⁷ cells/mℓ) and 0.1 mℓ of test compound solution (1000 or 10 µg/mℓ) was added. The growth inhibition ratio (%) was determined. For comparison, cis-1-acetyl-4-[4-[[2-(2,4-dichrolophenyl)-2-(imidazol-1-ylmethyl)-1,3-dioxolan-4-yl]methoxy]phenyl]piperazine (Ketoconazole) was used as a reference compound (hereinafter referred to as compound A).

[2] = test system: Candida albicans IFO 1270; assay: Survival of mice intravenously inoculated with Candida albicans, oral treatment (Test Example 2); type: in vivo; details: male ddy mice, i.v. Candida albicans IFO 1270 (1 x 10⁸ cells/kg); 10 mg/kg orally once a day for three days; 10th day from inoculation
Protocol: Six-week-old male ddy mice were used as test animals (10 animals per control group; 5 animals per test group). Each animal was intravenously inoculated with Candida albicans IFO 1270 (1 x 10⁸ cells/kg) which has been subcultured on Sabouraud's glucose agar at 37 °C for 24 hours.
After the inoculation, each test compound was orally administered at a dosage of 10 mg/kg to the animal once a day for consecutive three days.
On the 10th day from the inoculation, the survival rate was monitored.

SMILES | Growth Inhibition (%) ([1]; 0.1 µg/mℓ) | Growth Inhibition (%) ([1]; 10 µg/mℓ) | Rate of Survival (%) [2]
C/C(=C\c1ccc(C(=O)N2CCOCC2)cc1)C(O)(Cn1cncn1)c1ccc(F)cc1F (racemic) [Compound No. 3] | 0% | 76% | 40%
C/C(=C\c1ccc(C#N)cc1)C(O)(Cn1cncn1)c1ccc(F)cc1F (racemic) [Compound No. 5, 2-(2,4-Difluorophenyl)-2-[1-methyl-2(4-cyanophenyl)ethenyl]-1-triazolyl-2-ethanol] | 72% | 96% | 100%
C/C(=C\c1ccc(OC(F)(F)F)cc1)C(O)(Cn1cncn1)c1ccc(F)cc1F (racemic) [Compound No. 6, 2-(2,4-Difluorophenyl)-2-[1-methyl-2-(4-trifluoromethoxyphenyl)ethenyl]-1-triazolyl-2-ethanol] | 63% | 86% | 100%
C/C(=C\c1ccc(CO)cc1)C(O)(Cn1cncn1)c1ccc(F)cc1F (racemic) [compound 4] | 8% | 65% | 40%
C/C(=C\c1ccc(OCC(F)(F)C(F)F)cc1)C(O)(Cn1cncn1)c1ccc(F)cc1F (racemic) [compound 7] | 60% | 86% | 100%
C/C(=C\c1ccccn1)C(O)(Cn1cncn1)c1ccc(F)cc1F (racemic) [compound 9] | 72% | 84% | 20%
C/C(=C\c1cccs1)C(O)(Cn1cncn1)c1ccc(F)cc1F (racemic) [compound 10] | 13% | 62% | 40%
C/C(=C\c1ccc(C(=O)NNC=O)cc1)C(O)(Cn1cncn1)c1ccc(F)cc1F (racemic) [compound 15] | 3% | 55% | 60%
C/C(=C\c1ccc(-c2nc[nH]n2)cc1)C(O)(Cn1cncn1)c1ccc(F)cc1F (racemic) [compound 23] | 8% | 67% | –
C/C(=C\c1ccc(SC(C)(C)C)cc1)C(O)(Cn1cncn1)c1ccc(F)cc1F (racemic) [compound 26] | 48% | 67% | –
C/C(=C\Sc1ccc(F)cc1)C(O)(Cn1cncn1)c1ccc(F)cc1 (racemic) [compound 30] | 11% | 83% | 40%
C/C(=C\C#Cc1ccc(F)cc1)C(O)(Cn1cncn1)c1ccc(F)cc1F (racemic) [compound 36] | 71% | 78% | 100%
C/C(=C\C=C\c1ccc(C(F)(F)F)cc1)C(O)(Cn1cncn1)c1ccc(F)cc1F (racemic) [compound 37] | 50% | 78% | 100%
CC(=O)N1CCN(c2ccc(OC[C@H]3CO[C@](Cn4ccnc4)(c4ccc(Cl)cc4Cl)O3)cc2)CC1 (relative stereo) [compound A, cis-1-acetyl-4-[4-[[2-(2,4-dichrolophenyl)-2-(imidazol-1-ylmethyl)-1,3-dioxolan-4-yl]methoxy]phenyl]piperazine, reference compound] | 62% | 76% | 20%
CC(=Cn1cncn1)C(O)(Cn1cncn1)c1ccc(F)cc1 (centres unmarked) [Compound No. 14] | – | – | 100%
